Source: US20090280160A1, “PHENYLEPHRINE PHARMACEUTICAL FORMULATIONS AND COMPOSITIONS FOR TRANSMUCOSAL ABSORPTION” (Schering-Plough Healthcare Products, Inc., priority 2007, published 2009)
“Also recorded” adds a separate entry of the source.

Target: T1, α2a adrenoreceptor (Homo sapiens, UniProt P08913)
T1 construct: expressed in transfected cells; host or cells: CHO (Chinese hamster ovary) cells, membranes
T1 sequence (P08913 1-465): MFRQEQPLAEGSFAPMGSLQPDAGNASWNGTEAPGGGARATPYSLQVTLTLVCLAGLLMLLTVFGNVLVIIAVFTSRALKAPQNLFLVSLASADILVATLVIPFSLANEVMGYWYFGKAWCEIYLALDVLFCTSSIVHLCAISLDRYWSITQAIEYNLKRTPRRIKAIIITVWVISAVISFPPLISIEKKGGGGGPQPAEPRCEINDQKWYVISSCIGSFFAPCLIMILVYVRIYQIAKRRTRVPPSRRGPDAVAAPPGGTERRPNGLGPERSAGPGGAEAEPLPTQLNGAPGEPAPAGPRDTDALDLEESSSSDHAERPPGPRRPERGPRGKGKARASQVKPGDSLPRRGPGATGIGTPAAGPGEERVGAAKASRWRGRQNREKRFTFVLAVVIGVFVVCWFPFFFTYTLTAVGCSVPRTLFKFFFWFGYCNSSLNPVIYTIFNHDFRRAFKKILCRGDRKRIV
Test: Competition binding, [3H]-UK14304, α2a CHO cell membranes
Conditions: for inhibition of [3H]-UK14304 binding, α2a (in words): CHO cell membranes
Description: The affinity and activity of phenylephrine metabolites were evaluated in human recombinant α1 and α2 adrenoreceptor binding and activity assays. […] Affinity of the metabolites was determined by receptor binding assays. Functional activity of the metabolites was assessed using an [^35S]-GTPγS binding exchange assay for the α2 receptor subtypes and a cell-based calcium flux response for the α1 receptor subtypes.
Competition Binding Assays
Competition binding assays for the α2 adrenoreceptors were performed using 20 μg membrane protein per well in binding buffer (75 mM Tris-HCl pH 7.4, 12.5 mM MgCl2, […] EDTA, 0.2% bovine serum albumin). […] Binding was terminated by rapid filtration through GF/C unifilter plates, presoaked with 0.3% polyethylenimine, with five washes with 0.5 ml cold 50 mM Tris-HCl ph 7.4, using a Packard Filtermate Harvester. After drying, bound radioactivity was determined by liquid scintillation counting (Packard TopCount) with Microscint 20, 50 μl/well. Binding data were analyzed using GraphPad Prism.
Each metabolite was evaluated in each assay in at least 2 independent experiments and a representative assay of each metabolite/assay combination is shown.

Compound	inhibition of [3H]-UK14304 binding, α2a (in words)	Ki ([3H]-UK14304, read-out: Ki, a2a Binding (class symbol)) [µM]	binding / affinity, α2a receptor (in words) (at 100 μM (highest concentration evaluated))	inhibition of [3H]-UK14304 binding, α2a (in words) (listed as PE glucuronide b4)	inhibition of [3H]-UK14304 binding, α2a (in words) (listed as PE glucuronide batch 4)
O=C(O)C(O)c1cccc(O)c1 (stereo not drawn) [3-hydroxymandelic acid]	no significant binding	> 100	no affinity		
CNC[C@H](O)c1cccc(O[C@@H]2O[C@H](C(=O)O)[C@@H](O)[C@H](O)[C@H]2O)c1 [PE glucuronide, (R)-PE glucuronide]	weakly inhibits binding; also recorded: pharmacologically inactive			A small amount of binding	minimal activity
